Data from patent US20230157296A1, “METHODS OF REDUCING FUSARIUM CONTAMINATION” (Taminco BV, priority 2020, published 2023).

What was measured:
[1] = test system: Foc TR4 chlamydospores; assay: Efficacy of metam sodium on chlamydospores of Foc TR4 in vitro (colonies on PDA plates); type: cell-based, Fusarium oxysporum f. sp. Cubense Tropical Race 4
Procedure: Foc TR4 chlamydospores were extracted from infested soil and incubated with a dilution series of metam sodium for 5 min and 60 min at room temperature. Thereafter, the samples were diluted 10X to get reduction of the treatment and sufficient dilution of chlamydospores to avoid lack of resolution when grown on plate. Aliquots of 100 µl were plated on PDA plates in duplicate and incubated for 3 days at 25° C. Plates were photographed and scored.

[2] = test system: F. oxysporum f. sp. cubense (Foc TR4); assay: Panama disease analysis of soil samples after metam sodium field injection; type: in vivo, Fusarium oxysporum f. sp. Cubense Tropical Race 4
Procedure: Metam Sodium Application. Metam sodium 510 SL (equivalent to 42% w/w) was applied to soil at the following doses: 0 liters per hectare (L/ha), 750 L/ha, 1500 L/ha, 2250 L/ha, 3000 L/ha.
Prior to injection, soil was prepared using a rototiller to break the soil structure from 0 cm to 80 cm deep, allowing for the smooth and even injection application by an injection machine. The soil was then leveled and made uniform, and the metam sodium was applied at two depths: 30 cm and 60 cm, using injection methods. The temperature was at a minimum of 10° C. and soil humidity was between 50 and 60% holding capacity, allowing the applied product to transform from metam sodium (liquid) to MITC (gas).
The application was made using an injection machine wherein the machine lowered shanks and began moving forward such that the shanks lowered to a depth of 60 cm and injectors applied the metam sodium into the soil. When the injection at 60 cm was complete, the process was repeated for the entire field at 30 cm. The treated soil in the field was then sealed using a packer roller (which was part of the injection machinery, located at the back end of the machine), after each application.
Soil Analysis. Soil samples were obtained at 20, 40, and 60 cm before application and every 24 hours beginning 48 hours after application, for seven days.
Plant Pathology Analysis. Soil samples used for Panama Disease and nematode analyses were aseptically isolated in culture medium and incubated for seven days at room temperature. Organisms were identified as follows: 20 grams of composite soil sample was diluted with 40 mL distilled water (dH2O); 1 drop of Tween 20 detergent was added, and the sample mixed. A 1 mL aliquot was taken from the solution and diluted with 9 mL dH2O; three further serial dilutions were made. From each dilution, 100 µL were spread on solid Komada growth medium (Sun et al., Phytopathology 68: 1672-1673, 1978). Growth could be seen 7 days after inoculation.

SMILES: CNC(=S)[S-].[Na+] [metam sodium, sodium N-methyldithiocarbamate]
- reducing the number of surviving chlamydospores, measured as growing colonies ([1]; 100X dilution, prolonged incubation (60 min vs 5 min)): more effective
- reduction in viability of Foc TR4 chlamydospores ([1]; First test, dilutions from 1000 up to 10 X 10^6-fold, 60 min): No significant reduction in viability
- efficacy on chlamydospores (colonies on PDA plates) ([1]; Second test, 10X and 100X dilutions): (partially) effective
- number of chlamydospores that survived ([1]; Second test, dilutions of 1000X and more): did not affect
- efficacy on chlamydospores (colonies on PDA plates) ([1]; dilution of 10X, incubation time 5 minutes): effective
- efficacy on chlamydospores (colonies on PDA plates) ([1]; dilution of 100X, both 5 and 60 minutes): less effective
- effectiveness against Foc TR4 chlamydospores ([1]; in vitro conditions, dependent on high concentrations): effective
- Panama Disease F. oxysporum f. sp. cubense ([2]; Day 1, 20 cm, T2 750 L/ha): -
- Panama Disease F. oxysporum f. sp. cubense ([2]; Day 1, 20 cm, T3 1500 L/ha): -
- Panama Disease F. oxysporum f. sp. cubense ([2]; Day 1, 20 cm, T4 2250 L/ha): -
- Panama Disease F. oxysporum f. sp. cubense ([2]; Day 1, 20 cm, T5 3000 L/ha): -
- Panama Disease F. oxysporum f. sp. cubense ([2]; Day 1, 40 cm, T2 750 L/ha): -
- Panama Disease F. oxysporum f. sp. cubense ([2]; Day 1, 40 cm, T3 1500 L/ha): -
- Panama Disease F. oxysporum f. sp. cubense ([2]; Day 1, 40 cm, T4 2250 L/ha): -
- Panama Disease F. oxysporum f. sp. cubense ([2]; Day 1, 40 cm, T5 3000 L/ha): -
- Panama Disease F. oxysporum f. sp. cubense ([2]; Day 1, 60 cm, T2 750 L/ha): -
- Panama Disease F. oxysporum f. sp. cubense ([2]; Day 1, 60 cm, T3 1500 L/ha): -
- Panama Disease F. oxysporum f. sp. cubense ([2]; Day 1, 60 cm, T4 2250 L/ha): -
- Panama Disease F. oxysporum f. sp. cubense ([2]; Day 1, 60 cm, T5 3000 L/ha): -
- Panama Disease F. oxysporum f. sp. cubense ([2]; Day 2, 20 cm, T2 750 L/ha): -
- Panama Disease F. oxysporum f. sp. cubense ([2]; Day 2, 20 cm, T3 1500 L/ha): -
- Panama Disease F. oxysporum f. sp. cubense ([2]; Day 2, 20 cm, T4 2250 L/ha): -
- Panama Disease F. oxysporum f. sp. cubense ([2]; Day 2, 20 cm, T5 3000 L/ha): -
- Panama Disease F. oxysporum f. sp. cubense ([2]; Day 2, 40 cm, T2 750 L/ha): -
- Panama Disease F. oxysporum f. sp. cubense ([2]; Day 2, 40 cm, T3 1500 L/ha): -
- Panama Disease F. oxysporum f. sp. cubense ([2]; Day 2, 40 cm, T4 2250 L/ha): -
- Panama Disease F. oxysporum f. sp. cubense ([2]; Day 2, 40 cm, T5 3000 L/ha): -
- Panama Disease F. oxysporum f. sp. cubense ([2]; Day 2, 60 cm, T2 750 L/ha): -
- Panama Disease F. oxysporum f. sp. cubense ([2]; Day 2, 60 cm, T3 1500 L/ha): -
- Panama Disease F. oxysporum f. sp. cubense ([2]; Day 2, 60 cm, T4 2250 L/ha): -
- Panama Disease F. oxysporum f. sp. cubense ([2]; Day 2, 60 cm, T5 3000 L/ha): -
- Panama Disease F. oxysporum f. sp. cubense ([2]; Day 3, 20 cm, T2 750 L/ha): -
- Panama Disease F. oxysporum f. sp. cubense ([2]; Day 3, 20 cm, T3 1500 L/ha): -
- Panama Disease F. oxysporum f. sp. cubense ([2]; Day 3, 20 cm, T4 2250 L/ha): -
- Panama Disease F. oxysporum f. sp. cubense ([2]; Day 3, 20 cm, T5 3000 L/ha): -
- Panama Disease F. oxysporum f. sp. cubense ([2]; Day 3, 40 cm, T2 750 L/ha): -
- Panama Disease F. oxysporum f. sp. cubense ([2]; Day 3, 40 cm, T3 1500 L/ha): -
- Panama Disease F. oxysporum f. sp. cubense ([2]; Day 3, 40 cm, T4 2250 L/ha): -
- Panama Disease F. oxysporum f. sp. cubense ([2]; Day 3, 40 cm, T5 3000 L/ha): -
- Panama Disease F. oxysporum f. sp. cubense ([2]; Day 3, 60 cm, T2 750 L/ha): -
- Panama Disease F. oxysporum f. sp. cubense ([2]; Day 3, 60 cm, T3 1500 L/ha): -
- Panama Disease F. oxysporum f. sp. cubense ([2]; Day 3, 60 cm, T4 2250 L/ha): -
- Panama Disease F. oxysporum f. sp. cubense ([2]; Day 3, 60 cm, T5 3000 L/ha): -
- Panama Disease F. oxysporum f. sp. cubense ([2]; Day 4, 20 cm, T2 750 L/ha): -
- Panama Disease F. oxysporum f. sp. cubense ([2]; Day 4, 20 cm, T3 1500 L/ha): -
- Panama Disease F. oxysporum f. sp. cubense ([2]; Day 4, 20 cm, T4 2250 L/ha): -
- Panama Disease F. oxysporum f. sp. cubense ([2]; Day 4, 20 cm, T5 3000 L/ha): -
- Panama Disease F. oxysporum f. sp. cubense ([2]; Day 4, 40 cm, T2 750 L/ha): -
- Panama Disease F. oxysporum f. sp. cubense ([2]; Day 4, 40 cm, T3 1500 L/ha): -
- Panama Disease F. oxysporum f. sp. cubense ([2]; Day 4, 40 cm, T4 2250 L/ha): -
- Panama Disease F. oxysporum f. sp. cubense ([2]; Day 4, 40 cm, T5 3000 L/ha): -
- Panama Disease F. oxysporum f. sp. cubense ([2]; Day 4, 60 cm, T2 750 L/ha): -
- Panama Disease F. oxysporum f. sp. cubense ([2]; Day 4, 60 cm, T3 1500 L/ha): -
